In paper PMC8020795 (Proceedings of the National Academy of Sciences of the …, 2021):

Assays:
bradykinin B1 receptor = target: T1, bradykinin B1 receptor (Homo sapiens, UniProt P46663); experiment: Off-target standard assay (radioligand binding, Eurofins Panlabs); conditions: read-out: Inhibition of bradykinin B1 receptor (B1R)
T1 construct: purchased Eurofins Panlabs, Inc (Taipei, Taiwan, ROC)
T1 sequence (P46663 1-353): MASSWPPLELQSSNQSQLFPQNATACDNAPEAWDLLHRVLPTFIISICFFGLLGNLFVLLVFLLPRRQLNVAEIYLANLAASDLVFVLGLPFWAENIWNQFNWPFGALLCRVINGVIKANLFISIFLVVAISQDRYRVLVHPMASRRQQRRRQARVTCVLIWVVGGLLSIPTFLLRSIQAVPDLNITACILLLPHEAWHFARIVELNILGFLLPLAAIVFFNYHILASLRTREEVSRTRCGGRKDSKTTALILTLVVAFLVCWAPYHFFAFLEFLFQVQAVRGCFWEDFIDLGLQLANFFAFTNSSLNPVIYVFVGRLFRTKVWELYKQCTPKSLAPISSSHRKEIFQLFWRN
From the text: (§1) Table: List of genes examined by real-time PCR and the primer sequences used.
(§2) Genes Forward primers Reverse primers […]
(§3) Vim 5’-[…]-3’ 5’-[…]-3’ […]
(§4) Zeb2 5’-[…]-3’ 5’-[…]-3’
(§5) Twist1 5’-[…]-3’ 5’-[…]-3’
(§6) Cdh1 5’-[…]-3’ 5’-[…]-3’
(§7) Mta3 5’-[…]-3’ 5’-[…]-3’ […]
(§8) Off-target standard assays
(§9) Methods employed in this study have been adapted from the scientific literature to […]
(§10) maximize reliability and reproducibility. Reference standards were run as an integral part of […]
(§11) each assay to ensure the validity of the results obtained. Radioligand binding Assays were […]
(§12) performed under conditions described in the accompanying "Methods" section of this report […]
(§13) by Eurofins Panlabs, Inc (Taipei, Taiwan, ROC).
(§14) BPRCX807 were tested in the hERG (hERG-CHO, automated patch-clamp) assay and determined at Eurofins Panlabs (Missouri, USA). The experiment was accepted in accordance with Eurofins validation Standard Operating Procedure.
(§15) Selectivity Screening of various chemokine receptors
(§16) The results were performed by Eurofins DiscoverX (Fremont, California, USA). The

dopamine D3 receptor = target: T2, dopamine D3 receptor (Homo sapiens, UniProt P35462); experiment: as above; conditions: read-out: Inhibition of dopamine D3 receptor (D3R)
T2 construct: purchased Eurofins Panlabs, Inc (Taipei, Taiwan, ROC)
From the text: as §1, §2, §3, §4, §5, §6, §7, §8, §9, §10, §11, §12, §13, §14, §15, §16

[1] = Non-GLP 14-d repeated dose toxicology; format: in vivo
[2] = Metabolic stability in liver microsomes; format: in vitro ADME; conditions: mouse, rat, dog, and human
From the text: Figure S4. The metabolic stabilities of BPRCX807 in liver microsomes. BPRCX807 is […]

DEN/CCl4-induced HCC = experiment: DEN/CCl4-induced liver fibrosis associated HCC model; format: in vivo, C3H mice
Experimental: In vivo hepatocellular carcinoma treatment studies […]
mouse PD-1 (200 µg/mouse; BioXcell, BE0146). The therapeutic efficacy and the changes in immune cells were analyzed after two weeks of treatment. The tumor volume was calculated with the following formula: volume = width × length × height/2. The lung metastatic nodules

T2 sequence (P35462 whole entry, species assumed): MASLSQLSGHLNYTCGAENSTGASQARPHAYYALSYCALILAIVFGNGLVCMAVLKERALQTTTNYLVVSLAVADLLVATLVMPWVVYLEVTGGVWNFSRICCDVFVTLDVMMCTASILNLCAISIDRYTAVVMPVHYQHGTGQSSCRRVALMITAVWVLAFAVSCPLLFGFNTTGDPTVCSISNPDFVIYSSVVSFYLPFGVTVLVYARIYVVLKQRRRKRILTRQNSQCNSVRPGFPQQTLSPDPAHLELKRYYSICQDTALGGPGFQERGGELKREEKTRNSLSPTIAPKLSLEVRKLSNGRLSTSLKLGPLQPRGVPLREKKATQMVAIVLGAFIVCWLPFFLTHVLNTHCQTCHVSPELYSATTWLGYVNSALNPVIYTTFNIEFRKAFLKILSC

Cc1cc(NC2CCN(C(=O)CCNCC(=O)O)CC2)nc(NCc2nc(CCCNCCCNC3CCCCC3)co2)n1 [BPRCX807]
inhibition at 10 µM (bradykinin B1 receptor): 62%
inhibition at 10 µM (dopamine D3 receptor): 58%
Survival in repeated dose toxicology ([1]; SD rats, 50 mg/kg/d, 14 d): all animals survived up to study termination
Non-GLP 14-d repeated dose, overall finding ([1]; rat, in vivo): Clean
Hematological and biochemical data vs vehicle ([1]; rat, in vivo, 50 mg/kg/day): no significant difference
Major organs (heart, lung, kidney, liver) vs vehicle ([1]; rat, in vivo, 50 mg/kg/day): normal in size, weight, and color
Adrenal Glands/B.W. ([1]; rat, in vivo, sc, 50 mg/kg): 0.0002 ± 0.00003
Albumin (ALB) ([1]; rat, in vivo, sc, 50 mg/kg): 4.0 ± 0.2 g/dL
Alkaline Phosphatase (ALP) ([1]; rat, in vivo, sc, 50 mg/kg): 901 ± 60 U/L
Basophil ([1]; rat, in vivo, sc, 50 mg/kg): 0.002 ± 0.004 103/µL
Basophil % ([1]; rat, in vivo, sc, 50 mg/kg): 0.01 ± 0.02%
Blood Urea Nitrogen (BUN) ([1]; rat, in vivo, sc, 50 mg/kg): 16.7 ± 2.1 mg/dL
Creatinine (CRE) ([1]; rat, in vivo, sc, 50 mg/kg): 0.22 ± 0.04 mg/dL
Eosinophil ([1]; rat, in vivo, sc, 50 mg/kg): 0.01 ± 0.01 103/µL
Eosinophil % ([1]; rat, in vivo, sc, 50 mg/kg): 0.11 ± 0.05%
Erythrocyte ([1]; rat, in vivo, sc, 50 mg/kg): 6.33 ± 0.45 106/µL
Glutamate oxaloacetate transaminase (GOT) ([1]; rat, in vivo, sc, 50 mg/kg): 67 ± 7 U/L
Glutamate pyruvate transaminase (GPT) ([1]; rat, in vivo, sc, 50 mg/kg): 35 ± 5 U/L
Heart/B.W. ([1]; rat, in vivo, sc, 50 mg/kg): 0.0038 ± 0.0004
Hematocrit ([1]; rat, in vivo, sc, 50 mg/kg): 41.4 ± 3.5
Hemoglobin ([1]; rat, in vivo, sc, 50 mg/kg): 13.8 ± 0.9 g/dL
Kidneys/B.W. ([1]; rat, in vivo, sc, 50 mg/kg): 0.0095 ± 0.0011
Lactate dehydrogenase (LDH) ([1]; rat, in vivo, sc, 50 mg/kg): 272 ± 132 U/L
Liver/B.W. ([1]; rat, in vivo, sc, 50 mg/kg): 0.0460 ± 0.0044
Lung/B.W. ([1]; rat, in vivo, sc, 50 mg/kg): 0.0054 ± 0.0005
Lymphocyte ([1]; rat, in vivo, sc, 50 mg/kg): 6.36 ± 3.70 103/µL
Lymphocyte % ([1]; rat, in vivo, sc, 50 mg/kg): 58.95 ± 6.42%
Mean corpuscle hemoglobin ([1]; rat, in vivo, sc, 50 mg/kg): 21.8 ± 1.0 pg
Mean corpuscle volume ([1]; rat, in vivo, sc, 50 mg/kg): 65.4 ± 2.7 fL
Mean platelet volume ([1]; rat, in vivo, sc, 50 mg/kg): 6.4 ± 0.1 fL
Monocyte ([1]; rat, in vivo, sc, 50 mg/kg): 0.63 ± 0.36 103/µL
Monocyte % ([1]; rat, in vivo, sc, 50 mg/kg): 5.82 ± 1.11%
Neutrophil ([1]; rat, in vivo, sc, 50 mg/kg): 3.75 ± 2.13 103/µL
Neutrophil % ([1]; rat, in vivo, sc, 50 mg/kg): 35.11 ± 5.51%
Platelet ([1]; rat, in vivo, sc, 50 mg/kg): 1327± 239 103/µL
Spleen/B.W. ([1]; rat, in vivo, sc, 50 mg/kg): 0.0021 ± 0.0004
Testes/B.W. ([1]; rat, in vivo, sc, 50 mg/kg): 0.0094 ± 0.0006
Thymus/B.W. ([1]; rat, in vivo, sc, 50 mg/kg): 0.0021 ± 0.0006
White blood cells ([1]; rat, in vivo, sc, 50 mg/kg): 10.75 ± 6.09 103/µL
Metabolic stability in liver microsomes [2]: metabolically stable
Tumors in fibrotic liver (DEN/CCl4-induced HCC; combination with anti–PD-1, BPRCX807 15 mg/kg/d SC minipump weeks 25 to 28): remarkably suppressed
Tumor size (DEN/CCl4-induced HCC; combination with sorafenib): significantly reduce tumor size more efficiently than sorafenib alone
